ChEMBL document CHEMBL3124789, “4,5-Dihydro-1H-pyrazolo[3,4-d]pyrimidine containing phenothiazines as antitubercular agents” (Bioorg Med Chem Lett, 2014)
Values after ≈ are worked out from the molar mass of the structure shown.

Experiments:
[1] = Selectivity index, ratio of IC50 for African green monkey Vero cells to MIC for Mycobacterium tuberculosis H37Rv; assay type: toxicity, cell-based; settings: read-out: Selectivity Index
Vero = assay: Cytotoxicity against African green monkey Vero cells; assay type: cell-based; settings: Chlorocebus sabaeus
[2] = tested on: Mycobacterium tuberculosis; assay: Antitubercular activity against Mycobacterium tuberculosis H37Rv assessed as growth inhibition by 2-fold dilution assay; assay type: functional
[3] = tested on: Mycobacterium tuberculosis; assay: Antitubercular activity against Mycobacterium tuberculosis H37Rv assessed as growth inhibition at 6.25 ug/ml after 4 days by microplate alamar blue assay; assay type: functional; settings: 96 h

Row | Compound | selectivity ratio [1] | IC50 (Vero) [µg/mL] | MIC [2] [µg/mL] | inhibition at 6.25 µg/mL [3] [%]
1 | Cc1nn(-c2ccc3c(c2)Nc2ccccc2S3)c2c1C(c1ccccc1Cl)NC(N)=N2 (centres undefined) | 5.8 | > 10 | 1.73 (≈ 3.77 µM) | 95
2 | COc1ccc(C2NC(N)=Nc3c2c(C)nn3-c2ccc3c(c2)Nc2ccccc2S3)cc1 (centres undefined) | – | – | – | 42
3 | Cc1nn(-c2ccc3c(c2)Nc2ccccc2S3)c2c1C(c1ccccc1O)NC(N)=N2 (centres undefined) | 3.5 | 7.8 (≈ 17.7 µM) | 2.23 (≈ 5.06 µM) | 92
4 | Cc1nn(-c2ccc3c(c2)Nc2ccccc2S3)c2c1C(c1ccccc1[N+](=O)[O-])NC(N)=N2 (centres undefined) | 5.8 | > 10 | 1.73 (≈ 3.68 µM) | 94
5 | Cc1nn(-c2ccc3c(c2)Nc2ccccc2S3)c2c1C(c1cccc(O)c1)NC(N)=N2 (centres undefined) | – | – | – | 57
6 | Cc1nn(-c2ccc3c(c2)Nc2ccccc2S3)c2c1C(c1ccc([N+](=O)[O-])cc1)NC(N)=N2 (centres undefined) | 5.2 | 9.1 (≈ 19.4 µM) | 1.73 (≈ 3.68 µM) | 95
7 | Cc1nn(-c2ccc3c(c2)Nc2ccccc2S3)c2c1C(c1ccc(Cl)cc1)NC(N)=N2 (centres undefined) | > 500 | > 10 | 0.02 (≈ 0.0436 µM) | 100
8 | Cc1nn(-c2ccc3c(c2)Nc2ccccc2S3)c2c1C(c1cccc([N+](=O)[O-])c1)NC(N)=N2 (centres undefined) | – | – | – | 73
9 | Cc1nn(-c2ccc3c(c2)Nc2ccccc2S3)c2c1C(c1ccccc1)NC(N)=N2 (centres undefined) | – | – | – | 78
10 | Cc1nn(-c2ccc3c(c2)Nc2ccccc2S3)c2c1C(c1ccc(O)cc1)NC(N)=N2 (centres undefined) | – | – | – | 67
11 | Cc1nn(-c2ccc3c(c2)Nc2ccccc2S3)c2c1C(c1cccc(Cl)c1)NC(N)=N2 (centres undefined) | – | – | – | 56
12 | NNC(=O)c1ccncc1 [ISONIAZID] | > 40000 | > 1000 | 0.03 (≈ 0.219 µM) | –
